Converted amounts (≈) assume the structure as drawn.
system: Staphylococcus aureus; experiment: Antibacterial activity against methicillin resistant Staphylococcus aureus assessed as inhibition of bacterial growth by micro-broth dilution assay; assay type: functional; details: not given

Row | Structure (SMILES) | MIC [µg/mL]
1 | Cn1nnnc1SCC(O)CN1C(=O)C(=O)c2ccccc21 (centres undefined) | 64 (≈ 200 µM)
2 | Cn1ccnc1SCC(O)CN1C(=O)C(=O)c2ccccc21 (centres undefined) | 128 (≈ 403 µM)
3 | O=C1/C(=N\Nc2ccc([N+](=O)[O-])cc2)c2ccccc2N1CC(O)CSc1nc[nH]n1 (centres undefined) | 32 (≈ 72.8 µM)
4 | O=C1/C(=N\Nc2ccccc2)c2ccccc2N1CC(O)CSc1nc[nH]n1 (centres undefined) | 128 (≈ 324 µM)
5 | Cn1ccnc1SCC(O)CN1C(=O)/C(=N\Nc2ccc(Cl)cc2)c2ccccc21 (centres undefined) | 128 (≈ 290 µM)
6 | Cn1nnnc1SCC(O)CN1C(=O)/C(=N\Nc2ccc(C(=O)O)cc2)c2ccccc21 (centres undefined) | 4 (≈ 8.82 µM)
7 | Cn1ccnc1SCC(O)CN1C(=O)/C(=N\Nc2ccc([N+](=O)[O-])cc2)c2ccccc21 (centres undefined) | 64 (≈ 141 µM)

system: Staphylococcus aureus; experiment: Antibacterial activity against Staphylococcus aureus assessed as inhibition of bacterial growth by micro-broth dilution assay; assay type: functional; details: not given

Row | Structure (SMILES) | MIC [µg/mL]
8 | Cn1nnnc1SCC(O)CN1C(=O)C(=O)c2ccccc21 (centres undefined) | 32 (≈ 100 µM)
9 | Cn1ccnc1SCC(O)CN1C(=O)C(=O)c2ccccc21 (centres undefined) | 64 (≈ 202 µM)
10 | O=C1/C(=N\Nc2ccc([N+](=O)[O-])cc2)c2ccccc2N1CC(O)CSc1nc[nH]n1 (centres undefined) | 32 (≈ 72.8 µM)
11 | O=C1/C(=N\Nc2ccccc2)c2ccccc2N1CC(O)CSc1nc[nH]n1 (centres undefined) | 32 (≈ 81.1 µM)
12 | Cn1ccnc1SCC(O)CN1C(=O)/C(=N\Nc2ccc(Cl)cc2)c2ccccc21 (centres undefined) | 16 (≈ 36.2 µM)
13 | Cn1nnnc1SCC(O)CN1C(=O)/C(=N\Nc2ccc(C(=O)O)cc2)c2ccccc21 (centres undefined) | 16 (≈ 35.3 µM)
14 | Cn1ccnc1SCC(O)CN1C(=O)/C(=N\Nc2ccc([N+](=O)[O-])cc2)c2ccccc21 (centres undefined) | 128 (≈ 283 µM)

system: Staphylococcus aureus; experiment: Antibacterial activity against Staphylococcus aureus ATCC 25923 assessed as inhibition of bacterial growth by micro-broth dilution assay; assay type: functional; details: not given

Row | Structure (SMILES) | MIC [µg/mL]
15 | Cn1nnnc1SCC(O)CN1C(=O)C(=O)c2ccccc21 (centres undefined) | 128 (≈ 401 µM)
16 | Cn1ccnc1SCC(O)CN1C(=O)C(=O)c2ccccc21 (centres undefined) | 32 (≈ 101 µM)
17 | O=C1/C(=N\Nc2ccc([N+](=O)[O-])cc2)c2ccccc2N1CC(O)CSc1nc[nH]n1 (centres undefined) | 128 (≈ 291 µM)
18 | O=C1/C(=N\Nc2ccccc2)c2ccccc2N1CC(O)CSc1nc[nH]n1 (centres undefined) | 16 (≈ 40.6 µM)
19 | Cn1ccnc1SCC(O)CN1C(=O)/C(=N\Nc2ccc(Cl)cc2)c2ccccc21 (centres undefined) | 256 (≈ 579 µM)
20 | Cn1nnnc1SCC(O)CN1C(=O)/C(=N\Nc2ccc(C(=O)O)cc2)c2ccccc21 (centres undefined) | 16 (≈ 35.3 µM)
21 | Cn1ccnc1SCC(O)CN1C(=O)/C(=N\Nc2ccc([N+](=O)[O-])cc2)c2ccccc21 (centres undefined) | 64 (≈ 141 µM)

system: Staphylococcus aureus; experiment: Antibacterial activity against Staphylococcus aureus ATCC 29213 assessed as inhibition of bacterial growth by micro-broth dilution assay; assay type: functional; details: not given

Row | Structure (SMILES) | MIC [µg/mL]
22 | Cn1nnnc1SCC(O)CN1C(=O)C(=O)c2ccccc21 (centres undefined) | 64 (≈ 200 µM)
23 | Cn1ccnc1SCC(O)CN1C(=O)C(=O)c2ccccc21 (centres undefined) | 64 (≈ 202 µM)
24 | O=C1/C(=N\Nc2ccc([N+](=O)[O-])cc2)c2ccccc2N1CC(O)CSc1nc[nH]n1 (centres undefined) | 32 (≈ 72.8 µM)
25 | O=C1/C(=N\Nc2ccccc2)c2ccccc2N1CC(O)CSc1nc[nH]n1 (centres undefined) | 128 (≈ 324 µM)
26 | Cn1ccnc1SCC(O)CN1C(=O)/C(=N\Nc2ccc(Cl)cc2)c2ccccc21 (centres undefined) | 64 (≈ 145 µM)
27 | Cn1nnnc1SCC(O)CN1C(=O)/C(=N\Nc2ccc(C(=O)O)cc2)c2ccccc21 (centres undefined) | 16 (≈ 35.3 µM)
28 | Cn1ccnc1SCC(O)CN1C(=O)/C(=N\Nc2ccc([N+](=O)[O-])cc2)c2ccccc21 (centres undefined) | 128 (≈ 283 µM)

system: Enterococcus faecalis; experiment: Antibacterial activity against Enterococcus faecalis assessed as inhibition of bacterial growth by micro-broth dilution assay; assay type: functional; details: not given

Row | Structure (SMILES) | MIC [µg/mL]
29 | Cn1nnnc1SCC(O)CN1C(=O)C(=O)c2ccccc21 (centres undefined) | 64 (≈ 200 µM)
30 | Cn1ccnc1SCC(O)CN1C(=O)C(=O)c2ccccc21 (centres undefined) | 128 (≈ 403 µM)
31 | O=C1/C(=N\Nc2ccc([N+](=O)[O-])cc2)c2ccccc2N1CC(O)CSc1nc[nH]n1 (centres undefined) | 64 (≈ 146 µM)
32 | O=C1/C(=N\Nc2ccccc2)c2ccccc2N1CC(O)CSc1nc[nH]n1 (centres undefined) | 32 (≈ 81.1 µM)
33 | Cn1ccnc1SCC(O)CN1C(=O)/C(=N\Nc2ccc(Cl)cc2)c2ccccc21 (centres undefined) | 4 (≈ 9.05 µM)
34 | Cn1nnnc1SCC(O)CN1C(=O)/C(=N\Nc2ccc(C(=O)O)cc2)c2ccccc21 (centres undefined) | 8 (≈ 17.6 µM)
35 | Cn1ccnc1SCC(O)CN1C(=O)/C(=N\Nc2ccc([N+](=O)[O-])cc2)c2ccccc21 (centres undefined) | 128 (≈ 283 µM)

system: Klebsiella pneumoniae; experiment: Antibacterial activity against Klebsiella pneumoniae assessed as inhibition of bacterial growth by micro-broth dilution assay; assay type: functional; details: not given

Row | Structure (SMILES) | MIC [µg/mL]
36 | Cn1nnnc1SCC(O)CN1C(=O)C(=O)c2ccccc21 (centres undefined) | 16 (≈ 50.1 µM)
37 | Cn1ccnc1SCC(O)CN1C(=O)C(=O)c2ccccc21 (centres undefined) | 64 (≈ 202 µM)
38 | O=C1/C(=N\Nc2ccc([N+](=O)[O-])cc2)c2ccccc2N1CC(O)CSc1nc[nH]n1 (centres undefined) | 64 (≈ 146 µM)
39 | O=C1/C(=N\Nc2ccccc2)c2ccccc2N1CC(O)CSc1nc[nH]n1 (centres undefined) | 128 (≈ 324 µM)
40 | Cn1ccnc1SCC(O)CN1C(=O)/C(=N\Nc2ccc(Cl)cc2)c2ccccc21 (centres undefined) | 2 (≈ 4.53 µM)
41 | Cn1nnnc1SCC(O)CN1C(=O)/C(=N\Nc2ccc(C(=O)O)cc2)c2ccccc21 (centres undefined) | 32 (≈ 70.6 µM)
42 | Cn1ccnc1SCC(O)CN1C(=O)/C(=N\Nc2ccc([N+](=O)[O-])cc2)c2ccccc21 (centres undefined) | 32 (≈ 70.7 µM)

system: Escherichia coli; experiment: Antibacterial activity against Escherichia coli assessed as inhibition of bacterial growth by micro-broth dilution assay; assay type: functional; details: not given

Row | Structure (SMILES) | MIC [µg/mL]
43 | Cn1nnnc1SCC(O)CN1C(=O)C(=O)c2ccccc21 (centres undefined) | 64 (≈ 200 µM)
44 | Cn1ccnc1SCC(O)CN1C(=O)C(=O)c2ccccc21 (centres undefined) | 128 (≈ 403 µM)
45 | O=C1/C(=N\Nc2ccc([N+](=O)[O-])cc2)c2ccccc2N1CC(O)CSc1nc[nH]n1 (centres undefined) | 64 (≈ 146 µM)
46 | O=C1/C(=N\Nc2ccccc2)c2ccccc2N1CC(O)CSc1nc[nH]n1 (centres undefined) | 128 (≈ 324 µM)
47 | Cn1ccnc1SCC(O)CN1C(=O)/C(=N\Nc2ccc(Cl)cc2)c2ccccc21 (centres undefined) | 32 (≈ 72.4 µM)
48 | Cn1nnnc1SCC(O)CN1C(=O)/C(=N\Nc2ccc(C(=O)O)cc2)c2ccccc21 (centres undefined) | 32 (≈ 70.6 µM)
49 | Cn1ccnc1SCC(O)CN1C(=O)/C(=N\Nc2ccc([N+](=O)[O-])cc2)c2ccccc21 (centres undefined) | 32 (≈ 70.7 µM)

system: Escherichia coli; experiment: Antibacterial activity against Escherichia coli ATCC 25922 assessed as inhibition of bacterial growth by micro-broth dilution assay; assay type: functional; details: not given

Row | Structure (SMILES) | MIC [µg/mL]
50 | Cn1nnnc1SCC(O)CN1C(=O)C(=O)c2ccccc21 (centres undefined) | 16 (≈ 50.1 µM)
51 | Cn1ccnc1SCC(O)CN1C(=O)C(=O)c2ccccc21 (centres undefined) | 64 (≈ 202 µM)
52 | O=C1/C(=N\Nc2ccc([N+](=O)[O-])cc2)c2ccccc2N1CC(O)CSc1nc[nH]n1 (centres undefined) | 128 (≈ 291 µM)
53 | O=C1/C(=N\Nc2ccccc2)c2ccccc2N1CC(O)CSc1nc[nH]n1 (centres undefined) | 64 (≈ 162 µM)
54 | Cn1ccnc1SCC(O)CN1C(=O)/C(=N\Nc2ccc(Cl)cc2)c2ccccc21 (centres undefined) | 128 (≈ 290 µM)
55 | Cn1nnnc1SCC(O)CN1C(=O)/C(=N\Nc2ccc(C(=O)O)cc2)c2ccccc21 (centres undefined) | 16 (≈ 35.3 µM)
56 | Cn1ccnc1SCC(O)CN1C(=O)/C(=N\Nc2ccc([N+](=O)[O-])cc2)c2ccccc21 (centres undefined) | 128 (≈ 283 µM)

system: Pseudomonas aeruginosa; experiment: Antibacterial activity against Pseudomonas aeruginosa assessed as inhibition of bacterial growth by micro-broth dilution assay; assay type: functional; details: not given

Row | Structure (SMILES) | MIC [µg/mL]
57 | Cn1nnnc1SCC(O)CN1C(=O)C(=O)c2ccccc21 (centres undefined) | 64 (≈ 200 µM)
58 | Cn1ccnc1SCC(O)CN1C(=O)C(=O)c2ccccc21 (centres undefined) | 64 (≈ 202 µM)
59 | O=C1/C(=N\Nc2ccc([N+](=O)[O-])cc2)c2ccccc2N1CC(O)CSc1nc[nH]n1 (centres undefined) | 32 (≈ 72.8 µM)
60 | O=C1/C(=N\Nc2ccccc2)c2ccccc2N1CC(O)CSc1nc[nH]n1 (centres undefined) | 16 (≈ 40.6 µM)
61 | Cn1ccnc1SCC(O)CN1C(=O)/C(=N\Nc2ccc(Cl)cc2)c2ccccc21 (centres undefined) | 64 (≈ 145 µM)
62 | Cn1nnnc1SCC(O)CN1C(=O)/C(=N\Nc2ccc(C(=O)O)cc2)c2ccccc21 (centres undefined) | 128 (≈ 282 µM)
63 | Cn1ccnc1SCC(O)CN1C(=O)/C(=N\Nc2ccc([N+](=O)[O-])cc2)c2ccccc21 (centres undefined) | 256 (≈ 566 µM)

system: Pseudomonas aeruginosa; experiment: Antibacterial activity against Pseudomonas aeruginosa ATCC 27853 assessed as inhibition of bacterial growth by micro-broth dilution assay; assay type: functional; details: not given

Row | Structure (SMILES) | MIC [µg/mL]
64 | Cn1nnnc1SCC(O)CN1C(=O)C(=O)c2ccccc21 (centres undefined) | 32 (≈ 100 µM)
65 | Cn1ccnc1SCC(O)CN1C(=O)C(=O)c2ccccc21 (centres undefined) | 64 (≈ 202 µM)
66 | O=C1/C(=N\Nc2ccc([N+](=O)[O-])cc2)c2ccccc2N1CC(O)CSc1nc[nH]n1 (centres undefined) | 64 (≈ 146 µM)
67 | O=C1/C(=N\Nc2ccccc2)c2ccccc2N1CC(O)CSc1nc[nH]n1 (centres undefined) | 128 (≈ 324 µM)
68 | Cn1ccnc1SCC(O)CN1C(=O)/C(=N\Nc2ccc(Cl)cc2)c2ccccc21 (centres undefined) | 32 (≈ 72.4 µM)
69 | Cn1nnnc1SCC(O)CN1C(=O)/C(=N\Nc2ccc(C(=O)O)cc2)c2ccccc21 (centres undefined) | 32 (≈ 70.6 µM)
70 | Cn1ccnc1SCC(O)CN1C(=O)/C(=N\Nc2ccc([N+](=O)[O-])cc2)c2ccccc21 (centres undefined) | 16 (≈ 35.4 µM)

system: Acinetobacter baumannii; experiment: Antibacterial activity against Acinetobacter baumannii assessed as inhibition of bacterial growth by micro-broth dilution assay; assay type: functional; details: not given

Row | Structure (SMILES) | MIC [µg/mL]
71 | Cn1nnnc1SCC(O)CN1C(=O)C(=O)c2ccccc21 (centres undefined) | 64 (≈ 200 µM)
72 | Cn1ccnc1SCC(O)CN1C(=O)C(=O)c2ccccc21 (centres undefined) | 64 (≈ 202 µM)
73 | O=C1/C(=N\Nc2ccc([N+](=O)[O-])cc2)c2ccccc2N1CC(O)CSc1nc[nH]n1 (centres undefined) | 32 (≈ 72.8 µM)
74 | O=C1/C(=N\Nc2ccccc2)c2ccccc2N1CC(O)CSc1nc[nH]n1 (centres undefined) | 128 (≈ 324 µM)
75 | Cn1ccnc1SCC(O)CN1C(=O)/C(=N\Nc2ccc(Cl)cc2)c2ccccc21 (centres undefined) | 16 (≈ 36.2 µM)
76 | Cn1nnnc1SCC(O)CN1C(=O)/C(=N\Nc2ccc(C(=O)O)cc2)c2ccccc21 (centres undefined) | 32 (≈ 70.6 µM)
77 | Cn1ccnc1SCC(O)CN1C(=O)/C(=N\Nc2ccc([N+](=O)[O-])cc2)c2ccccc21 (centres undefined) | 64 (≈ 141 µM)

system: not listed separately; experiment: Hemolytic activity in RBC (unknown origin) assessed as hemolysis; assay type: toxicity, cell-based, Erythrocyte; details: red blood cells (erythrocytes)

Row | Structure (SMILES) | HC50 [µg/mL]
78 | Cn1nnnc1SCC(O)CN1C(=O)C(=O)c2ccccc21 (centres undefined) | 335
79 | Cn1ccnc1SCC(O)CN1C(=O)C(=O)c2ccccc21 (centres undefined) | > 512
80 | O=C1/C(=N\Nc2ccc([N+](=O)[O-])cc2)c2ccccc2N1CC(O)CSc1nc[nH]n1 (centres undefined) | > 512
81 | O=C1/C(=N\Nc2ccccc2)c2ccccc2N1CC(O)CSc1nc[nH]n1 (centres undefined) | 375
82 | Cn1ccnc1SCC(O)CN1C(=O)/C(=N\Nc2ccc(Cl)cc2)c2ccccc21 (centres undefined) | 151
83 | Cn1nnnc1SCC(O)CN1C(=O)/C(=N\Nc2ccc(C(=O)O)cc2)c2ccccc21 (centres undefined) | 292
84 | Cn1ccnc1SCC(O)CN1C(=O)/C(=N\Nc2ccc([N+](=O)[O-])cc2)c2ccccc21 (centres undefined) | > 512

From ChEMBL document CHEMBL5338704, “Discovery of novel phenylhydrazone-based oxindole-thiolazoles as potent antibacterial agents toward Pseudomonas aeruginosa” (Eur J Med Chem, 2022)
